Results from paper PMC11268196, “Biochemical characterization of ClpB and DnaK from Anaplasma phagocytophilum” (Cell Stress & Chaperones, 2024).

Experiments:
[1] = target: T1, ApK (A. phagocytophilum DnaK) (Anaplasma phagocytophilum, UniProt Q2GKZ8); test: fluorescence anisotropy of FITC-labeled peptide B2 (nucleotide effect on peptide binding); conditions: 2 mM ADP; indirect read-out through labelled peptide B2
T1 sequence (Q2GKZ8 1-645): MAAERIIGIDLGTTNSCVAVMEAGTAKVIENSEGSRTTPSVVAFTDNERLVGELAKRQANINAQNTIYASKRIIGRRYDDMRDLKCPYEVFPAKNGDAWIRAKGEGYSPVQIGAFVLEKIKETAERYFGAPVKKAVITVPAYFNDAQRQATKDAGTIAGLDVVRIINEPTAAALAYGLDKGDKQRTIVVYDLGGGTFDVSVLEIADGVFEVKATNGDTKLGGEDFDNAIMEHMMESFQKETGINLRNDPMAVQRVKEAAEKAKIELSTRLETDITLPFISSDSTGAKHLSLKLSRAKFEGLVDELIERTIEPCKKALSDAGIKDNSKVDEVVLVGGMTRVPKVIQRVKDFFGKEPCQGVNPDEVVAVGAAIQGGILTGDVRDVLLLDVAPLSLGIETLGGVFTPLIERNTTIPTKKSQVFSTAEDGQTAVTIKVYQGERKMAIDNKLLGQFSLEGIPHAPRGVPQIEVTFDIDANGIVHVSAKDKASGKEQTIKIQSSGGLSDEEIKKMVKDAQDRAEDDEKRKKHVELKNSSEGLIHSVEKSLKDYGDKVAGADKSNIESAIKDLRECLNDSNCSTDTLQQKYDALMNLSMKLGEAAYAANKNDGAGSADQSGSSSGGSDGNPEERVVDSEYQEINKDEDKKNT

EcB (E. coli ClpB) = EcB (E. coli ClpB) (Escherichia coli, UniProt P63284); test: malachite green phosphate release (ATPase); format: biochemical; conditions: 5 mM ATP, 20 mM MgCl2, pH 7.4, 37 °C; basal (no casein or poly-lysine)
[2] = target: T1, ApK (A. phagocytophilum DnaK); test: malachite green phosphate release (ATPase); format: biochemical; conditions: 5 mM ATP, 20 mM MgCl2, pH 7.4, 37 °C; basal (no casein or poly-lysine)
EcK (E. coli DnaK) = EcK (E. coli DnaK) (Escherichia coli, UniProt P0A6Y8); conditions: 5 mM ATP, 20 mM MgCl2, pH 7.4, 37 °C; basal (no casein or poly-lysine)
[3] = target: T2, ApB (A. phagocytophilum ClpB) (Anaplasma phagocytophilum, UniProt Q2GL99); conditions: 5 mM ATP, 20 mM MgCl2, pH 7.4, 37 °C; basal (no casein or poly-lysine)
T2 sequence (Q2GL99 1-859): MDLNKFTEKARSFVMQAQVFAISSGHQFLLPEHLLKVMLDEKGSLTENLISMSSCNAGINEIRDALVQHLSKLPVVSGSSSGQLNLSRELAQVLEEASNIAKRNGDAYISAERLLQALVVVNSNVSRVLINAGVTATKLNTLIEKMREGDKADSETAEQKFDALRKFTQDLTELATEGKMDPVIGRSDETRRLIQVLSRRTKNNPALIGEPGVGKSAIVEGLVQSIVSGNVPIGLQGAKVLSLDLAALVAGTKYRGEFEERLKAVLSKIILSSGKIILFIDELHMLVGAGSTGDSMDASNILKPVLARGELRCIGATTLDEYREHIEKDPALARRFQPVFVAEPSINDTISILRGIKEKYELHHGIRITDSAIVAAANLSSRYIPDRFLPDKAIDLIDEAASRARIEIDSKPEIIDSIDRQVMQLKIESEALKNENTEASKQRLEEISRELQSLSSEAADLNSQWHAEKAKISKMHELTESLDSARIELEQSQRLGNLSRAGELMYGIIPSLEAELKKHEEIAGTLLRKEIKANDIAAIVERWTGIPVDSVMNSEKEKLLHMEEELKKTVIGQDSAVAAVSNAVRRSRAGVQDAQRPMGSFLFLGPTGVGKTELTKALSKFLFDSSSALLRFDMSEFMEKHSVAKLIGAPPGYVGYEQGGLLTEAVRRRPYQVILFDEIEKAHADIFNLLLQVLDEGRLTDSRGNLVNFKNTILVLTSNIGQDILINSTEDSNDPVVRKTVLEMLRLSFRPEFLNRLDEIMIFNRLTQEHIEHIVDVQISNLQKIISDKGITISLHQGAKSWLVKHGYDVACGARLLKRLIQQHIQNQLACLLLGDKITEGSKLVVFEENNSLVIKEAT

Sequence of EcB (E. coli ClpB) (P63284 whole entry): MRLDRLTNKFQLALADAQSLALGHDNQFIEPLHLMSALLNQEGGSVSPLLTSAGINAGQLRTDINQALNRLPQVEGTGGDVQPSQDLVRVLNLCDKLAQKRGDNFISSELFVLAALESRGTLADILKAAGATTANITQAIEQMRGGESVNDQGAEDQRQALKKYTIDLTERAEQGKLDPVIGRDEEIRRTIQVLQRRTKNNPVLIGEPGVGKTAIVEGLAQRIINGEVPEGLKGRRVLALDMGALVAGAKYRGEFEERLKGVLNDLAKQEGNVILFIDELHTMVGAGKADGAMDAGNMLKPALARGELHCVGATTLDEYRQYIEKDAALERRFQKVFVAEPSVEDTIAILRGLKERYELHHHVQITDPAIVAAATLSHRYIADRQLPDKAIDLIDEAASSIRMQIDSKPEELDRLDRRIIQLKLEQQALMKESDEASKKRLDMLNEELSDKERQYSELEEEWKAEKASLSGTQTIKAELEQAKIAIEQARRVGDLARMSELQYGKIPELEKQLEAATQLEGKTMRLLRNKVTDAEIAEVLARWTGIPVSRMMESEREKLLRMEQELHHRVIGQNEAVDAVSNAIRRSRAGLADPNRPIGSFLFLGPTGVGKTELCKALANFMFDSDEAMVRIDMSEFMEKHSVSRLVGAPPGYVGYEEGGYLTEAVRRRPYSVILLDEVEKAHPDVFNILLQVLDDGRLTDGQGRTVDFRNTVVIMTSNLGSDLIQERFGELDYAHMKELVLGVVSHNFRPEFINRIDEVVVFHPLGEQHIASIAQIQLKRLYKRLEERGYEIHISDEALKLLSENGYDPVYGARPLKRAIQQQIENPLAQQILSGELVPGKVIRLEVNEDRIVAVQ
Sequence of EcK (E. coli DnaK) (P0A6Y8 2-638): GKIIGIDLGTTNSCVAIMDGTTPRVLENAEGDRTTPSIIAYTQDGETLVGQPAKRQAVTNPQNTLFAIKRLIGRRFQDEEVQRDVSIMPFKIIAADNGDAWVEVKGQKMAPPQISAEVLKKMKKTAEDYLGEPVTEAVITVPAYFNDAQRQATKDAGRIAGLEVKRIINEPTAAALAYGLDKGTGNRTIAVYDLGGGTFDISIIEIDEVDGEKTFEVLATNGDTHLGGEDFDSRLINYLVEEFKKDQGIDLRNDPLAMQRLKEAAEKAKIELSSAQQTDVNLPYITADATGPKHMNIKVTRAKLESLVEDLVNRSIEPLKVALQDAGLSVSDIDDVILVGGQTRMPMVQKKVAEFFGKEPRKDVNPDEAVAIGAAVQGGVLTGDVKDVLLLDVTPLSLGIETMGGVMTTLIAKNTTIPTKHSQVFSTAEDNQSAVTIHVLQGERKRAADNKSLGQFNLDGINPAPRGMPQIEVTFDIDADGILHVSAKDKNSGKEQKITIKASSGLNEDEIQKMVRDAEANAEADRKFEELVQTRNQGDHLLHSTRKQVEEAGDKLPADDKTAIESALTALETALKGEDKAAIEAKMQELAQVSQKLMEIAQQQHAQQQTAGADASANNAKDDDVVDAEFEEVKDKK

Row | SMILES | fluorescence anisotropy of FITC-labeled peptide B2 (nucleotide effect on peptide) [1] | ATPase activity (EcB (E. coli ClpB)) | ATPase activity [2] | ATPase activity (EcK (E. coli DnaK)) | ATPase activity [3]
1 | Nc1ncnc2c1ncn2[C@@H]1O[C@H](COP(=O)(O)OP(=O)(O)O)[C@@H](O)[C@H]1O [ADP] | ADP induced a strong binding of B2 to ApK |  |  |  | 
2 | Nc1ncnc2c1ncn2[C@@H]1O[C@H](COP(=O)(O)OP(=O)(O)OP(=O)(O)O)[C@@H](O)[C@H]1O [ATP] |  | the basal ATPase activity of ApB exceeded that of EcB | The basal ATPase activity of ApK was lower than that of EcK | The basal ATPase activity of ApK was lower than that of EcK | the basal ATPase activity of ApB exceeded that of EcB
